Source: US20240368125A1, “NOVEL PYRAZINYL-TRIAZOLE COMPOUNDS AS PESTICIDES” (Bayer Aktiengesellschaft, priority 2021, published 2024)

Key:
Type in all cases: in vivo
[1] = tested on: larvae of the banded cucumber beetle (Diabrotica balteata); assay: Diabrotica balteata spray test; conditions: Diabrotica balteata, 168 h; 100 g/ha (=32 μg/well), wheat seeds, after 7 days; read-out: efficacy (seedlings grown)
Experimental: Diabrotica balteata—Spray Test
(§1) Solvent: 78.0 parts by weight of acetone • • 1.5 parts by weight of dimethylformamide
(§2) Emulsifier: alkylarylpolyglycol ether
(§3) To produce a suitable preparation of active compound, 1 part by weight of active compound is mixed with the stated amount of solvent, and the concentrate is diluted with water, containing an emulsifier concentration of 1000 ppm, to the desired concentration. Further test concentrations are prepared by dilution with emulsifier containing water.
Soaked wheat seeds (Triticum aestivum) are placed in a multiple well plate filled with agar and some water and are incubated for 1 day to germinate (5 seeds per well). The germinated wheat seeds are sprayed with a test solution containing the desired concentration of the active ingredient. Afterwards each unit is infected with 10-20 larvae of the banded cucumber beetle (Diabrotica balteata).
After 7 days efficacy in % is determined. 100% means all the seedlings have grown up like in the untreated, uninfected control; 0% means none of the seedlings have grown.

[2] = tested on: fall armyworm larvae (Spodoptera frugiperda); assay: Spodoptera frugiperda spray test (SPODFR); conditions: in Zea mays, 168 h
Experimental: Spodoptera frugiperda—Spray Test
(§4) Solvent: 78.0 parts by weight acetone • 1.5 parts by weight dimethylformamide
as §2
as §3, with “solvents” for “solvent,”, “and” for “and the concentrate”
Maize (Zea mays) leaf sections are sprayed with a preparation of the active ingredient of the desired concentration. Once dry, the leaf sections are infested with fall armyworm larvae (Spodoptera frugiperda).
After 7 days mortality in % is determined. 100% means all caterpillars have been killed and 0% means none of the caterpillars have been killed.
Spodoptera frugiperda—Spray Test (SPODFR
After the specified period of time, mortality in % is determined. 100% means all caterpillars have been killed and 0% means none of the caterpillars have been killed.

[3] = tested on: brown planthopper (Nilaparvata lugens); assay: Nilaparvata lugens spray test; conditions: Nilaparvata lugens, in Oryza sativa, 96 h
Experimental: Nilaparvata lugens—Spray Test
as §1, §2
as §3, with “solvents” for “solvent,”, “and” for “and the concentrate”
Rice plants (Oryza sativa) are sprayed with a preparation of the active ingredient of the desired concentration and the plants are infested with the brown planthopper (Nilaparvata lugens).
After 4 days mortality in % is determined. 100% means all planthoppers have been killed and 0% means none of the planthoppers have been killed.

[4] = tested on: green peach aphid (Myzus persicae); assay: Myzus persicae spray test (MYZUPE); conditions: in Brassica rapa, foliar, 120 h
Experimental: Myzus persicae—Spray Test
as §4, §2
as §3, with “solvents” for “solvent,”, “and” for “and the concentrate”
Chinese cabbage (Brassica pekinensis) leaf disks infected with all instars of the green peach aphid (Myzus persicae), are sprayed with a preparation of the active ingredient of the desired concentration.
After 5 days mortality in % is determined. 100% means all aphids have been killed and 0% means none of the aphids have been killed.
Myzus persicae—Spray Test (MYZUPE
After the specified period of time, mortality in % is determined. 100% means all aphids have been killed and 0% means none of the aphids have been killed.

[5] = tested on: Rhipicephalus (Boophilus) microplus larvae (strain Parkhurst, resistant against synthetic pyrethroids); assay: Rhipicephalus (Boophilus) microplus in-vitro contact test, larval cattle tick; conditions: Rhipicephalus microplus; 1 μg/cm^2 (=100 g/ha), after 48 hours; read-out: efficacy (larvae dead or moribund)
Experimental: Rhipicephalus (Boophilus) Microplus—In-Vitro Contact Tests Larval Cattle Tick (Strain Parkhurst, Resistant Against Synthetic Pyrethroids
(§5) 9 mg compound is solved in 1 mL acetone and diluted with acetone to the desired concentration. 250 μL of the test solution is filled in 25 mL glass test tubes and homogeneously distributed on the inner walls by rotation and tilting on a shaking device (2 h at 30 rpm). With a compound concentration of 900 ppm, an inner surface of 44.7 cm^2 and a homogeneous distribution, a dose of 5 μg/cm^2 is achieved.
After the solvent has evaporated, each test tube is filled with 20-50 cattle tick larvae (Rhipicephalus microplus), closed with a perforated lid and incubated in a horizontal position at 85% relative humidity and 27° C. in an incubator. After 48 hours efficacy is determined. The larvae are patted on the ground of the tubes and negative geotactic behavior is recorded.

[6] = tested on: larvae of the southern green stink bug (Nezara viridula); assay: Nezara viridula spray test; conditions: Nezara viridula, in Hordeum vulgare, 96 h
Experimental: Nezara viridula—Spray Test
as §1, §2, §3
Barley plants (Hordeum vulgare) are sprayed with a test solution containing the desired concentration of the active ingredient and are infested with larvae of the southern green stink bug (Nezara viridula).
After 4 days mortality in % is determined. 100% means all the stink bugs have been killed; 0% means none of the stink bugs have been killed.

[7] = tested on: adult brown dog ticks (Rhipicephalus sanguineus); assay: Rhipicephalus sanguineus in-vitro contact test, adult brown dog ticks; conditions: Rhipicephalus sanguineus; 1 μg/cm^2 (=100 g/ha), after 48 hours; read-out: efficacy (ticks dead or moribund)
Experimental: Rhipicephalus sanguineus—In-Vitro Contact Tests with Adult Brown Dog Ticks
as §5
(§6) After the solvent has evaporated, each test tube is filled with 5-10 adult brown dog ticks (Rhipicephalus sanguineus), closed with a perforated lid and incubated in a lying position at room temperature and relative humidity. After 48 hours efficacy is determined. The ticks are patted on the ground of the tubes and are incubated on a heating plate at 45-50° C. for at most 5 minutes. Immotile or uncoordinated moving ticks, which are not able to escape the heat by climbing upwards, are marked as dead or moribund.
An efficacy of 100% means all ticks are dead or moribund; 0% means no ticks are dead or moribund.

[8] = tested on: adult cat fleas (Ctenocephalides felis); assay: Ctenocephalides felis in-vitro contact test, adult cat flea; conditions: Ctenocephalides felis; 1 μg/cm^2 (=100 g/ha), after 48 hours; read-out: efficacy (fleas dead or moribund)
Experimental: Ctenocephalides Felis—In-Vitro Contact Tests Adult Cat Flea
as §5
as §6, with “cat fleas (Ctenocephalides felis),” for “brown dog ticks (Rhipicephalus sanguineus),”, “fleas” for “ticks”, “fleas,” for “ticks,”
An efficacy of 100% means all fleas are dead or moribund; 0% means no fleas are dead or moribund.

[9] = tested on: adult unfed cat fleas (Ctenocephalides felis); assay: Ctenocephalides felis oral test; conditions: 48 h, 100 ppm in citrated cattle blood, after 2 days
Experimental: Ctenocephalides felis—Oral Test
(§7) Solvent: Dimethyl Sulfoxide
To produce a suitable preparation of active compound, 10 mg of active compound are dissolved in 0.5 mL solvent, and the concentrate is diluted with citrated cattle blood to the desired concentration.
Approximately 20 adult unfed cat fleas (Ctenocephalides felis) are placed in a flea chamber whose top and bottom is covered with gauze. A chamber whose bottom is sealed with parafilm, is filled with the blood-compound solution and placed on top of the flea chamber, so that the fleas can suck the blood. The blood chamber is heated to 37° C. whereas the flea chamber is kept at room temperature.
After 2 days mortality in % is determined. 100% means all the fleas have been killed; 0% means none of the fleas have been killed.

[10] = tested on: adult engorged female ticks (Rhipicephalus microplus); assay: Rhipicephalus (Boophilus) microplus injection test; conditions: 4 μg/tick, after 7 days
Experimental: Rhipicephalus (Boophilus) Microplus—Injection Test
as §7
To produce a suitable preparation of active compound, 10 mg of active compound are dissolved in 0.5 mL solvent, and the concentrate is diluted with solvent to the desired concentration.
Five adult engorged female ticks (Rhipicephalus microplus) are injected with 1 μL compound solution into the abdomen. The ticks are transferred into replica plates and incubated in a climate chamber.
After 7 days egg deposition of fertile eggs is monitored. Eggs where fertility is not visible are stored in a climate chamber till hatching after about 42 days. An efficacy of 100% means all eggs are infertile; 0% means all eggs are fertile.

[11] = tested on: adult Blattella germanica strain PAULINIA; assay: Blattella germanica test (BLTTGE surface treatment & contact assay); conditions: surface concentration 20 mg/m^2, 30 min exposure, 24 hours after contact, read-out: efficacy (mortality)
Experimental: Blattella germanica Test (BLTTGE Surface Treatment & Contact Assay
(§8) Solvent: Aceton+2000 ppm rapeseed oil methyl ester (RME)
(§9) In order to produce a sufficient, active ingredient containing solution it is necessary to solve the test compound in the solvent-mix (acetone at 2 mg/ml/RME 2000 ppm). This solution is pipetted onto a glazed tile and after evaporation of the acetone, adult animals of the species Blattella germanica strain PAULINIA are placed onto the dried surface. The exposure time is 30 minutes.
Mortality in percent (%) is determined 24 hours after contact of the insects to the treated surface. 100% mortality means that all tested insects are dead, whereas 0% means that no insect died.

[12] = tested on: adult mosquitoes Aedes aegypti strain MONHEIM; assay: Aedes aegypti test (AEDSAE surface treatment & contact assay); conditions: surface concentration 4 mg/m^2, 30 min exposure, 24 hours after contact, read-out: efficacy (mortality)
Experimental: Aedes aegypti Test (AEDSAE Surface Treatment & Contact Assay
as §8
as §9, with “mosquitoes” for “animals”, “Aedes aegypti” for “Blattella germanica”, “MONHEIM” for “PAULINIA”, “minutes. Mortality in percent (%) is determined 24 hours after contact of the insects to the treated surface. 100% mortality means that all tested insects are dead, whereas 0% means that no insect died.” for “minutes.”

Structure (SMILES)	pest or weed control at 32 µg/disc, 100 g/ha [1]	mortality at 100 g/ha [2]	mortality at 500 g/ha [3]	mortality at 100 g/ha [4]	pest or weed control at 1 µg/cm2 [5]	mortality at 500 g/ha [6]	pest or weed control at 1 µg/cm2, 100 g/ha [7]	pest or weed control at 1 µg/cm2 [8]	mortality at 100 ppm [9]	efficacy (infertile eggs) [10]	mortality at 20 mg/m2 [11]	mortality at 4 mg/m2 [12]
Cc1nc([C@H](C)NC(=O)c2cc(OC(F)(F)F)cc(C3CC3)c2)n(-c2cnc(C(=O)N(C)C)cn2)n1 [Example I-047, 5-(5-{(1S)-1-[3-Cyclopropyl-5-(trifluoromethoxy)benzamido]ethyl}-3-methyl-1H-1,2,4-triazol-1-yl)-N,N-dimethylpyrazine-2-carboxamide]	80%	100%	100%	90%	100%	100%	100%	100%				
C[C@H](NC(=O)c1cc(C(F)(F)F)cc(C(F)(F)F)c1)c1ncnn1-c1cnc(C(N)=O)cn1 [Example I-010]		100%	100%	90%	100%	100%	100%	100%	100%	100%		
Cc1nc([C@H](C)NC(=O)c2cc(C(F)(F)F)cc(C(F)(F)F)c2)n(-c2cnc(C(=O)N(C)C)cn2)n1 [Example I-015]		100%	100%	90%	100%	100%	100%	100%				
CCN(C)C(=O)c1cnc(-n2ncnc2[C@H](C)NC(=O)c2cc(C(F)(F)F)cc(C(F)(F)F)c2)cn1 [Example I-006]		100%	100%	100%	100%		100%	100%	100%	100%		
C[C@H](NC(=O)c1cc(C(F)(F)F)cc(C(F)(F)F)c1)c1ncnn1-c1cnc(C(=O)N(C)C)cn1 [Example I-005]		100%	100%	100%	100%		100%	100%	100%	100%		
Cc1nc([C@H](C)NC(=O)c2cc(C(F)(F)F)cc(C(F)(F)F)c2)n(-c2cnc(C(=O)N(C)C3CC3)cn2)n1 [Example I-001]		100%	100%	90%	100%	100%	100%	100%	100%	100%		
CNC(=O)c1cnc(-n2ncnc2[C@H](C)NC(=O)c2cc(OC(F)(F)F)cc(S(C)(=O)=O)c2)cn1 [Example I-019]	100%	100%	100%	90%	100%	100%	100%	100%			80 to 100%	80 to 100%
CCN(C)C(=O)c1cnc(-n2nc(C)nc2[C@H](C)NC(=O)c2cc(C(F)(F)F)cc(C(F)(F)F)c2)cn1 [Example I-016]		100%	100%	100%	100%	100%	100%	100%				
C[C@H](NC(=O)c1cc(OC(F)(F)F)cc(C2CC2)c1)c1ncnn1-c1cnc(C(=O)N(C)C2CC2)cn1 [Example I-003]	100%	100%		90%	100%		80%	100%	100%	100%		
